Assay results published in article PMC11992225, “Antibacterial compounds against non-growing and intracellular bacteria” (npj Antimicrobials and Resistance, 2025).
≈ marks a conversion by molar mass, not a printed value. Where two headings read alike, the source gives them in different places.

Columns and labels:
P. aeruginosa DSM1117 = experiment: MIC, standard microdilution assay, growing P. aeruginosa; format: cell-based, Pseudomonas aeruginosa; conditions: P. aeruginosa, CA-MHB pH 7.4, read-out: MIC (μM) CA-MHB
Experimental: (§1) Minimal inhibitory concentrations (MICs) were determined using a standard microdilution assay protocol. CA-MHB medium buffered with 40 mM HEPES (pH 7.4) was used to determine the MICs for UPEC, P. aeruginosa, and S. aureus. […] MICs for UPEC were also determined in LPM buffered with 30 mM MES (pH 5.5). For S. flexneri, MICs were determined in tryptic soy broth (TSB). The assay was performed in triplicates.

S. flexneri 5a M90T = experiment: MIC in tryptic soy broth, S. flexneri; format: cell-based, Shigella flexneri
Experimental: as §1

E. coli CFT073 (UPEC) = experiment: MIC, standard microdilution assay, growing UPEC; format: cell-based, Escherichia coli; conditions: E. coli, pH 7.4
Experimental: as §1

non-growing UPEC CFT073 [1] = experiment: Dilution-regrowth assay (screen, hit validation, dose-response) on stationary-phase UPEC; format: cell-based, Escherichia coli; conditions: for OD600 at 6hr, Mean: after dilution into drug-free medium; for EC50: E. coli, pH 7.4, regrowth delay of non-growing bacteria, 1:4 CA-MHB, 24 h treatment, OD600 6 h after 2500-fold dilution, read-out: EC50; for activity in the dilution-regrowth screen: non-growing UPEC, 20 μM
Experimental: The cultures were incubated for 24 h in non-baffled Erlenmeyer flasks at 37 °C with shaking at 200 rpm.
The high-throughput screening (HTS) procedure was based on the protocol by Hazan and colleagues[15] and conducted at the Chemical Biology Consortium Sweden (CBCS) screening facility. […] Each plate included eight wells with 200 nl of 10 mM gatifloxacin, finafloxacin, and kanamycin solutions, along with 8-wells containing 200 nl of DMSO as controls. After 24 h incubation,100 μl of the culture was dispensed into each well of the 384-well plates for screening at a final concentration of 20 μM. The plates were sealed with parafilm and incubated at 37 °C for 24 h in closed humidified boxes, with wet paper towels added to prevent evaporation. […] The plates were incubated at 37 °C for 6 h in humidified boxes, then OD600 was measured using a microplate reader.
For hit validation, bacteria were cultivated, and the dilution-regrowth assay was conducted following the same protocol used in the primary screen. Hit compounds were dispensed into 384-well plates using the Echo® (Labcyte) system, with 200, 100, or 50 nl of a 10 mM solution in DMSO added per well, yielding final screening concentrations of 20, 10, and 5 μM, respectively. OD600 values of regrowing samples were normalized to the mean OD600 of the drug-free control. The testing was conducted in two replicates.
For UPEC, dose–response analysis was conducted at the CBCS screening facility. Bacteria were cultivated, and the dilution-regrowth assay was performed according to the HTS protocol. Compounds were dispensed into 384-well plates using the Echo® (Labcyte) system, and regrowth was assessed by measuring OD600 after 6 h of incubation at 37 °C in humidified boxes. Three biological replicates were performed.
Statistical significance of the drug effects was assessed using a one-way ANOVA followed by Dunnett’s test, comparing each treatment to the drug-free control. Statistical significance of the differences in chemical characteristics between the hit compounds and the Prestwick library was assessed using a Mann–Whitney test. Statistical significance was set at P ≤ 0.05. A five-parameter logistic equation was used for asymmetric sigmoidal curve fitting and for EC50 and IC50 determination. The Venn diagram in Fig. 1F was prepared using BioVenn web application. Characteristics of the chemical and physical properties of Prestwick library compounds were obtained from Supplementary Table S1 from reference. Characteristics of the hit compounds not included in the Prestwick library were retrieved from the PubChem database.

non-growing UPEC CFT073 [2] = experiment: Dose-dependent killing analysis (CFU spot-plating) of stationary-phase UPEC; format: cell-based, Escherichia coli; conditions: E. coli in 1:4 CA-MHB (pH 7.4); for Δlog10(CFU/ml): average killing vs before treatment (8.977)
Experimental: To differentiate between these scenarios, we used CFU counting by agar plating to assess the bactericidal effect on non-growing bacteria. […] Conversely, if no significant reduction in CFU is observed, the regrowth delay is due to PAE without killing. […] Fluoroquinolones are known to cause PAE after treatment of growing bacterial cultures.
For survival analysis, bacteria were cultivated as described for the dose–response dilution-regrowth assay. Assays with UPEC were conducted at the CBCS screening facility using 96-well plates with a 200 μl sample volume, and compounds were dispensed using the Echo® (Labcyte) system. P. aeruginosa and S. aureus samples were treated according to the protocol used for the dilution-regrowth experiments. Treated samples were serially diluted 10-fold in PBS, and 10 μl drops were spot-plated onto rectangular LB agar plates using either a Beckman NXP robot (for UPEC) or an Integra VIAFLO96 electronic pipette (for P. aeruginosa and S. aureus). The LB agar plates were incubated overnight at 37 °C and scanned. Colonies were counted at the spots of the lowest dilution where individual colonies could be accurately distinguished. Each colony was manually marked on a separate image layer using the GNU Image Manipulation Program, and counted using NIST’s Integrated Colony Enumerator (NICE 1.4) software. The experiments were performed in three biological replicates.

S. aureus DSM2569 = experiment: MIC, standard microdilution assay, growing S. aureus; format: cell-based, Staphylococcus aureus; conditions: Staphylococcus aureus, DSM2569; S. aureus; CA-MHB pH 7.4; read-out: MIC (μM) CA-MHB
Experimental: as §1

CCC[C@H](NC(=O)/C(C#N)=C/c1cccc(Br)n1)c1ccccc1 [Degrasyn]
MIC (P. aeruginosa DSM1117): >80 µM | MIC (μM) TSB (S. flexneri 5a M90T; S. flexneri, extracellular bacteria in TSB): >128 µM | MIC (E. coli CFT073 (UPEC); 1:4 diluted CA-MHB, read-out: MIC (μM) 1:4 CA-MHB): >80 µM | MIC (μM) CA-MHB +PAβN (E. coli CFT073 (UPEC); CA-MHB with 10 μg/ml efflux pump inhibitor PaβN): >80 µM | MIC (E. coli CFT073 (UPEC); CA-MHB, read-out: MIC (μM) CA-MHB): >80 µM | OD600 at 6hr, Mean (non-growing UPEC CFT073 [1]; E. coli in 1:4 CA-MHB (pH 7.4), 0.25 μM): 0.603 | OD600 at 6hr, Mean (non-growing UPEC CFT073 [1]; E. coli in 1:4 CA-MHB (pH 7.4), 0.5 μM): 0.604 | OD600 at 6hr, Mean (non-growing UPEC CFT073 [1]; E. coli in 1:4 CA-MHB (pH 7.4), 1 μM): 0.558 | OD600 at 6hr, Mean (non-growing UPEC CFT073 [1]; E. coli in 1:4 CA-MHB (pH 7.4), 2.5 μM): 0.295 | OD600 at 6hr, Mean (non-growing UPEC CFT073 [1]; E. coli in 1:4 CA-MHB (pH 7.4), 5 μM): 0.108 | OD600 at 6hr, Mean (non-growing UPEC CFT073 [1]; E. coli in 1:4 CA-MHB (pH 7.4), 10 μM): 0.069 | OD600 at 6hr, Mean (non-growing UPEC CFT073 [1]; E. coli in 1:4 CA-MHB (pH 7.4), 30 μM): 0.079 | OD600 at 6hr, Mean (non-growing UPEC CFT073 [1]; E. coli in LPM (pH 5.5), 0.25 μM): 0.554 | OD600 at 6hr, Mean (non-growing UPEC CFT073 [1]; E. coli in LPM (pH 5.5), 0.5 μM): 0.565 | OD600 at 6hr, Mean (non-growing UPEC CFT073 [1]; E. coli in LPM (pH 5.5), 1 μM): 0.575 | OD600 at 6hr, Mean (non-growing UPEC CFT073 [1]; E. coli in LPM (pH 5.5), 2.5 μM): 0.579 | OD600 at 6hr, Mean (non-growing UPEC CFT073 [1]; E. coli in LPM (pH 5.5), 5 μM): 0.583 | OD600 at 6hr, Mean (non-growing UPEC CFT073 [1]; E. coli in LPM (pH 5.5), 10 μM): 0.582 | OD600 at 6hr, Mean (non-growing UPEC CFT073 [1]; E. coli in LPM (pH 5.5), 30 μM): 0.588 | EC50 (non-growing UPEC CFT073 [1]): 2.22 µM | Log10(CFU/ml), Replicate #1 (non-growing UPEC CFT073 [2]; 0.25 μM): 9.301 Log10(CFU/ml) | Log10(CFU/ml), Replicate #2 (non-growing UPEC CFT073 [2]; 0.25 μM): 8.699 Log10(CFU/ml) | Log10(CFU/ml), Replicate #3 (non-growing UPEC CFT073 [2]; 0.25 μM): 9.079 Log10(CFU/ml) | Δlog10(CFU/ml) (non-growing UPEC CFT073 [2]; 0.25 μM): -0.049 log10(CFU/ml) | Log10(CFU/ml), Replicate #1 (non-growing UPEC CFT073 [2]; 0.5 μM): 9.279 Log10(CFU/ml) | Log10(CFU/ml), Replicate #2 (non-growing UPEC CFT073 [2]; 0.5 μM): 8.505 Log10(CFU/ml) | Log10(CFU/ml), Replicate #3 (non-growing UPEC CFT073 [2]; 0.5 μM): 8.602 Log10(CFU/ml) | Δlog10(CFU/ml) (non-growing UPEC CFT073 [2]; 0.5 μM): 0.182 log10(CFU/ml) | Log10(CFU/ml), Replicate #1 (non-growing UPEC CFT073 [2]; 1 μM): 9.204 Log10(CFU/ml) | Log10(CFU/ml), Replicate #2 (non-growing UPEC CFT073 [2]; 1 μM): 8.477 Log10(CFU/ml) | Log10(CFU/ml), Replicate #3 (non-growing UPEC CFT073 [2]; 1 μM): 9.204 Log10(CFU/ml) | Δlog10(CFU/ml) (non-growing UPEC CFT073 [2]; 1 μM): 0.016 log10(CFU/ml) | Log10(CFU/ml), Replicate #1 (non-growing UPEC CFT073 [2]; 2.5 μM): 9.204 Log10(CFU/ml) | Log10(CFU/ml), Replicate #2 (non-growing UPEC CFT073 [2]; 2.5 μM): 8.845 Log10(CFU/ml) | Log10(CFU/ml), Replicate #3 (non-growing UPEC CFT073 [2]; 2.5 μM): 8.301 Log10(CFU/ml) | Δlog10(CFU/ml) (non-growing UPEC CFT073 [2]; 2.5 μM): 0.194 log10(CFU/ml) | Log10(CFU/ml), Replicate #1 (non-growing UPEC CFT073 [2]; 5 μM): 8.954 Log10(CFU/ml) | Log10(CFU/ml), Replicate #2 (non-growing UPEC CFT073 [2]; 5 μM): 6.778 Log10(CFU/ml) | Log10(CFU/ml), Replicate #3 (non-growing UPEC CFT073 [2]; 5 μM): 7.176 Log10(CFU/ml) | Δlog10(CFU/ml) (non-growing UPEC CFT073 [2]; 5 μM): 1.341 log10(CFU/ml) | Log10(CFU/ml), Replicate #1 (non-growing UPEC CFT073 [2]; 10 μM): 6.623 Log10(CFU/ml) | Log10(CFU/ml), Replicate #2 (non-growing UPEC CFT073 [2]; 10 μM): 6.699 Log10(CFU/ml) | Log10(CFU/ml), Replicate #3 (non-growing UPEC CFT073 [2]; 10 μM): 6.532 Log10(CFU/ml) | Δlog10(CFU/ml) (non-growing UPEC CFT073 [2]; 10 μM): 2.359 log10(CFU/ml)

CC[C@H]1OC(=O)C[C@@H](O)[C@H](C)[C@@H](O[C@@H]2O[C@H](C)[C@@H](O[C@H]3C[C@@](C)(O)[C@@H](O)[C@H](C)O3)[C@H](N(C)C)[C@H]2O)[C@@H](CC=O)C[C@@H](C)C(=O)/C=C/C(C)=C/[C@@H]1CO[C@@H]1O[C@H](C)[C@@H](O)[C@@H](OC)[C@H]1OC [Tylosin]
MIC (P. aeruginosa DSM1117; Pseudomonas aeruginosa, DSM1117): > 160 µM | MIC (S. flexneri 5a M90T; Shigella flexneri, 5AM90T, read-out: MIC (μM) TSB): 128 µM (≈ 117 µg/mL) | MIC (S. aureus DSM2569): 1 µM (≈ 0.916 µg/mL) | MIC (E. coli CFT073 (UPEC); Escherichia coli, 1:4 diluted CA-MHB, read-out: MIC (μM) 1:4 CA-MHB): 160 µM (≈ 147 µg/mL) | MIC (E. coli CFT073 (UPEC); Escherichia coli, CA-MHB, read-out: MIC (μM) CA-MHB): 160 µM (≈ 147 µg/mL) | EC50 (non-growing UPEC CFT073 [1]; Escherichia coli): 7.28 µM

CC[C@H]1OC(=O)[C@H](C)C(=O)[C@H](C)[C@@H](O[C@@H]2O[C@H](C)C[C@H](N(C)C)[C@H]2O)[C@](C)(OC)C[C@@H](C)C(=O)[C@H](C)[C@H]2N(CCCCn3cnc(-c4cccnc4)c3)C(=O)O[C@]12C [telithromycin]
activity in the dilution-regrowth screen (non-growing UPEC CFT073 [1]): no activity

colistin
activity in the dilution-regrowth screen (non-growing UPEC CFT073 [1]): not identified as hits
